From the supplement of paper PMC11451515

How the values were obtained:
Conditions in all cases: 48 h
SEM cells [1] = test: AUC of viability dose-response curve (% viability x log10 dose units); higher = less sensitive
Method in brief: (§1)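 Seeding of medium-adapted leukemia cells was at 500 or 1000 cells/well in 1536-well plates, followed by 48 h at 37°C with library compounds in DMSO at 11 threefold doses from 47 μM to 0.79 nM. CellTiter-Glo One luminescence was normalised per plate to DMSO and cell-free wells and fitted as a four-parameter log-logistic function of log10 dose. Area under the curve was integrated by trapezoidal rule, with curves exceeding full viability scaled and curves failing quality control removed.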

P12-Ichikawa [2] = test: as above
Method in brief: as §1

NOMO1 [3] = test: as above
Method in brief: as §1

SEM cells [4] = test: cell viability relative to DMSO control; higher = less cytotoxic
Method in brief: (§2)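 NOMO1, SEM and P12-Ichikawa leukemia cells spent at least four passages adapting to each medium before use. They were seeded at 500 cells/well (NOMO1, SEM) or 1000 cells/well (P12-Ichikawa) in 5 μl in 1536-well plates and pin-dosed with library compounds in DMSO at 11 threefold steps from 47 μM down to 0.79 nM. After 48 h at 37°C, CellTiter-Glo One luminescence was read. Viability is reported as a percentage of the DMSO wells on each plate, with cell-free wells as background.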

P12-Ichikawa [5] = test: as above
Method in brief: as §2

NOMO1 [6] = test: as above
Method in brief: as §2

CN(C)CCN(C)CCc1ccc(Cl)c(Cl)c1
AUC of viability dose-response curve
Conditions | NOMO1 [3] | P12-Ichikawa [2] | SEM cells [1]
HPLM + 10% dialyzed FBS | 473 | 467 | 466
RPMI 5 mM glucose + 10% FBS | 473 | 465 | 458
RPMI 5 mM glucose + 10% dialyzed FBS | 473 | 466 | 451

cell viability [%], SEM cells [4]
Conditions | HPLM + 10% dialyzed FBS | RPMI 5 mM glucose + 10% FBS
0.000781 µM | 118 | 123
0.00234 µM | 114 | 101
0.00702 µM | 132 | 121
0.0211 µM | 131 | 125
0.0632 µM | 128 | 124
0.19 µM | 131 | 133
0.569 µM | 127 | 145
1.71 µM | 119 | 132
5.12 µM | 122 | 127
15.4 µM | 114 | 131
46.1 µM | 114 | 126

COc1cc(N2CCC(O)CC2)ccc1Nc1cc(Nc2ccccc2[S+](=O)([O-])C(C)C)c2cc[nH]c2n1
AUC of viability dose-response curve
Conditions | HPLM + 10% dialyzed FBS | RPMI 5 mM glucose + 10% FBS | RPMI 5 mM glucose + 10% dialyzed FBS
NOMO1 [3] | 331 | 414 | 404
P12-Ichikawa [2] | 411 | 392 | 400

cell viability [%]
Conditions | NOMO1 [6] | P12-Ichikawa [5] | SEM cells [4]
HPLM + 10% dialyzed FBS, 0.000781 µM | 105 | 91.6 | 87.5
HPLM + 10% dialyzed FBS, 0.00234 µM | 131 | 88.2 | 71.5
HPLM + 10% dialyzed FBS, 0.00702 µM | 64.6 | 86 | 79.4
HPLM + 10% dialyzed FBS, 0.0211 µM | 53.7 | 91.3 | 79.2
HPLM + 10% dialyzed FBS, 0.0632 µM | 96.5 | 93 | 81.4
HPLM + 10% dialyzed FBS, 0.19 µM | 96.3 | 85.3 | 58.7
HPLM + 10% dialyzed FBS, 0.569 µM | 89 | 78.4 | 34.3
HPLM + 10% dialyzed FBS, 1.71 µM | 79 | 85.1 | 83.4
HPLM + 10% dialyzed FBS, 5.12 µM | 74.1 | 84.4 | 44
HPLM + 10% dialyzed FBS, 15.4 µM | 62.1 | 84.4 | 17.7
HPLM + 10% dialyzed FBS, 46.1 µM | 65.6 | 80.2 | 22.2
RPMI 5 mM glucose + 10% FBS, 0.000781 µM | 91.7 | 78.4 | –
RPMI 5 mM glucose + 10% FBS, 0.00234 µM | 92.6 | 85.5 | –
RPMI 5 mM glucose + 10% FBS, 0.00702 µM | 84.6 | 85.2 | –
RPMI 5 mM glucose + 10% FBS, 0.0211 µM | 84.9 | 85.4 | –
RPMI 5 mM glucose + 10% FBS, 0.0632 µM | 98.7 | 87.2 | –
RPMI 5 mM glucose + 10% FBS, 0.19 µM | 84.4 | 88 | –
RPMI 5 mM glucose + 10% FBS, 0.569 µM | 92.4 | 81.3 | –
RPMI 5 mM glucose + 10% FBS, 1.71 µM | 86.6 | 81.8 | –
RPMI 5 mM glucose + 10% FBS, 5.12 µM | 87.6 | 80.8 | –
RPMI 5 mM glucose + 10% FBS, 15.4 µM | 74 | 77.4 | –
RPMI 5 mM glucose + 10% FBS, 46.1 µM | 71.9 | 66.9 | –
RPMI 5 mM glucose + 10% dialyzed FBS, 0.000781 µM | 90.4 | 85 | 93.2
RPMI 5 mM glucose + 10% dialyzed FBS, 0.00234 µM | 83.4 | 85.2 | 94.6
RPMI 5 mM glucose + 10% dialyzed FBS, 0.00702 µM | 97.3 | 86.5 | 82.4
RPMI 5 mM glucose + 10% dialyzed FBS, 0.0211 µM | 100 | 83.7 | 96.8
RPMI 5 mM glucose + 10% dialyzed FBS, 0.0632 µM | 101 | 87.1 | 86.3
RPMI 5 mM glucose + 10% dialyzed FBS, 0.19 µM | 87.8 | 80.7 | 60.7
RPMI 5 mM glucose + 10% dialyzed FBS, 0.569 µM | 63.4 | 85 | 27.6
RPMI 5 mM glucose + 10% dialyzed FBS, 1.71 µM | 84.7 | 83.7 | 81.1
RPMI 5 mM glucose + 10% dialyzed FBS, 5.12 µM | 87.5 | 85.6 | 53.9
RPMI 5 mM glucose + 10% dialyzed FBS, 15.4 µM | 67 | 78.4 | 21.1
RPMI 5 mM glucose + 10% dialyzed FBS, 46.1 µM | 67.1 | 77.9 | 18.3
